Our source for the GI50 and IC50 values is patent US11691970B2, “Pyrazolopyridinone compounds” (Janssen Pharmaceutica NV, priority 2017, dated 2023).

In assay [1] the target is T1, NIH/3T3 cells overexpressing FGFR3 WT-TACC3 fusion protein (Homo sapiens, UniProt P22607).
T1 construct: NIH/3T3 FGFR3 WT-TACC3 CTG (IC50); other: 72-hr incubation, CellTiter Glo, top concentration 10 μM; fused on or other part: Q9Y6A5 (Transforming acidic coiled-coil-containing protein 3)
As to the kind of experiment: NIH/3T3 FGFR3 WT-TACC3 cell proliferation assay (CellTiter Glo). It counts as cell-based. The settings on record: 72-hr incubation, top concentration 10 μM, read-out: NIH/3T3 FGFR3 WT-TACC3 CTG (IC50). The protocol: NIH/3T3 FGFR3 WT-TACC3 Cell Proliferation Assay
In day 1, 90 μL of cell suspension (NIH/3T3 cells overexpressing FGFR3 WT-TACC3 fusion protein) (total 30,000 cells per well in growth medium (DMEM containing 1% Glutamax, 10% FBS and 1% Pen/Strep)) was seeded in a 96-well plate and then incubated overnight at 37° C. and 5% CO2. […] After 72-hr incubation at 37° C. and 5% CO2, in day 5 a volume of 50 μL CellTiter Glo (CTG) reagent was added into cell-containing 96-well plate and the plate was incubated at room temperature for 10 minutes before RLUs (relative light unit) were measured on a microplate reader with luminescence detection module.
(Cellular ATP, detected with luciferase, serves as a proxy for viable cell number.)

For assay [2], the system named is NIH/3T3 cells transfected with control vector. As to the kind of experiment: NIH/3T3 mock cell proliferation assay (counter assay, CellTiter Glo). It counts as cell-based. To be noted: Mus musculus, NIH3T3, 72 h, 72-hr incubation, top concentration 30 μM, counter assay for general toxicity, read-out: NIH/3T3 MOCK CTG (IC50). The protocol:
NIH/3T3 Mock Cell Proliferation Assay
In day 1, 90 μL of cell suspension (NIH/3T3 cells transfected with the same control vector as in the above two proliferation assays) (total 30,000 cells per well in growth medium (DMEM containing 1% Glutamax, 10% FBS and 1% Pen/Strep)) was seeded in a 96-well plate and then incubated overnight at 37° C. and 5% CO2. In day 2, 10 μL of growth medium containing 10-fold stock solution of testing compound was added into cell cultures (9 dose points with 3× serial dilution, starting with 30 μM, 0.3% DMSO final). After 72-hr incubation at 37° C. and 5% CO2, in day 5 a volume of 50 μL CellTiter Glo (CTG) reagent was added into cell-containing 96-well plate and the plate was incubated at room temperature for 10 minutes before RLUs (relative light unit) were measured on a microplate reader with luminescence detection module.

Assay [3] concerns the target T2, human FGFR3 wild type enzyme (cytoplasmic domain) (Homo sapiens, UniProt P22607).
T2 construct: human FGFR3 wild type enzyme (cytoplasmic domain, from Carna Biosciences); purchased Carna Biosciences
Briefly: FGFR3 wild type mobility shift assay (enzymatic assay). The class given is biochemical. To be noted: 75 μM ATP, 50 minutes at 30° C, Caliper EZ reader II. The source says: FGFR3 Wild Type Mobility Shift Assay (Enzymatic Assay)

T1 sequence (P22607 whole entry, change not shown, the tested form may be a part): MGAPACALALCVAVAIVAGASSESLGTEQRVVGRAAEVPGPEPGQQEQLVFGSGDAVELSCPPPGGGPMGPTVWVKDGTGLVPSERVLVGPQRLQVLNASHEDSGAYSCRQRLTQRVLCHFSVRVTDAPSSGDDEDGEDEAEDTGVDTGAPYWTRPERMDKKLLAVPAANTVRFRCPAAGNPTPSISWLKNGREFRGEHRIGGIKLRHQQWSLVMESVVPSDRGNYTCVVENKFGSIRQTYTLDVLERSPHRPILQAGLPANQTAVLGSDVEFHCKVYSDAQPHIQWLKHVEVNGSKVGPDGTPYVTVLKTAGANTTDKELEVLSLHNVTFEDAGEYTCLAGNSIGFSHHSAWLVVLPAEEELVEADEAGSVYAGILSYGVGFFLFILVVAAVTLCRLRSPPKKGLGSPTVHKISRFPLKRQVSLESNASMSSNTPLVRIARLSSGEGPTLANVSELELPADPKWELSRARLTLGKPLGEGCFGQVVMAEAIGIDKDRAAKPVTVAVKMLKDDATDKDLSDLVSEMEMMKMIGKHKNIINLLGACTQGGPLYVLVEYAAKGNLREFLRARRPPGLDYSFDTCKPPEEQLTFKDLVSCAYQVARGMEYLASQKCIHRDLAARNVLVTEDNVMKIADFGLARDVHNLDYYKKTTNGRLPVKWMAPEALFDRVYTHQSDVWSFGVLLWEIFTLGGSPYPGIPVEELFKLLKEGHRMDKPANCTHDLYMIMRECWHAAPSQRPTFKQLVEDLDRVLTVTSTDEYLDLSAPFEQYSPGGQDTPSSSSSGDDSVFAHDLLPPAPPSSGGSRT
T2 sequence (P22607 397-806 limits assumed): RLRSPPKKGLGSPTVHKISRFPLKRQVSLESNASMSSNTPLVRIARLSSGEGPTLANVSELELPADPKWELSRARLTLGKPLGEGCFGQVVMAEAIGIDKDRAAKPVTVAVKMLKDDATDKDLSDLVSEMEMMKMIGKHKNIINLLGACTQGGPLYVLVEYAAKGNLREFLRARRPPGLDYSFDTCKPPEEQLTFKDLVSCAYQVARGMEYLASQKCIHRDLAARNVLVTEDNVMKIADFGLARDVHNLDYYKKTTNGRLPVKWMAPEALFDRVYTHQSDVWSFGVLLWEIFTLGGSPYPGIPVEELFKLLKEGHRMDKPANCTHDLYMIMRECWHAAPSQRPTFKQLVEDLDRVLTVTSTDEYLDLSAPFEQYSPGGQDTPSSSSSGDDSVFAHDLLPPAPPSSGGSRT

In the case of `CC(Nc1c(-c2nc3cc(F)c(N4CCOCC4)cc3[nH]2)c(=O)[nH]c2cn(C)nc12)c1ncccn1` (single isomer, unassigned) [Compound 9, (S*)-6-(5-Fluoro-6-morpholino-1H-benzo[d]imidazol-2-yl)-2-methyl-7-((1-(pyrimidin-2-yl)ethyl)amino)-2H-pyrazolo[4,3-b]pyridin-5(4H)-one], the GI50 in assay [1] came to 17.1 nM. For the same molecule, the IC50 was 691 nM in assay [2] and 0.618 nM in assay [3].
Taken in the same sequence, the figures for `CC(Nc1c(-c2nc3ccc(N4CCOCC4)c(F)c3[nH]2)c(=O)[nH]c2cn(C)nc12)c1ncccn1` (single isomer, unassigned) [Compound 14, (S*)-6-(7-fluoro-6-morpholino-1H-benzo[d]imidazol-2-yl)-2-methyl-7-((1-(pyrimidin-2-yl)ethyl)amino)-2H-pyrazolo[4,3-b]pyridin-5(4H)-one] were 4.06 nM, 424 nM and 1.9 nM.
For `CC(Nc1c(-c2nc3ccc(N4CCCCC4)c(F)c3[nH]2)c(=O)[nH]c2cn(C)nc12)c1ncccn1` (single isomer, unassigned) [Compound 15, (S*)-6-(7-fluoro-6-(piperidin-1-yl)-1H-benzo[d]imidazol-2-yl)-2-methyl-7-((1-(pyrimidin-2-yl)ethyl)amino)-2H-pyrazolo[4,3-b]pyridin-5(4H)-one], the GI50 in assay [1] is 16.9 nM. In addition, the IC50 in assay [2] turned out to be 3700 nM; in assay [3], 1.06 nM.
Taken in the same sequence, the figures for `CC(Nc1c(-c2nc3cc(C(F)(F)F)c(N4CCOCC4)cc3[nH]2)c(=O)[nH]c2cn(C)nc12)c1ncccn1` (single isomer, unassigned) [Compound 21, (R*)-2-methyl-6-(6-morpholino-5-(trifluoromethyl)-1H-benzo[d]imidazol-2-yl)-7-((1-(pyrimidin-2-yl)ethyl)amino)-2H-pyrazolo[4,3-b]pyridin-5(4H)-one] were 17.5 nM, 5900 nM and 3.71 nM.
Taken in the same sequence, the figures for `CC(Nc1c(-c2nc3ccc(C4CCOCC4)cc3[nH]2)c(=O)[nH]c2cn(C)nc12)c1ncccn1` (single isomer, unassigned) [Compound 22, (S*)-2-methyl-7-((1-(pyrimidin-2-yl)ethyl)amino)-6-(6-(tetrahydro-2H-pyran-4-yl)-1H-benzo[d]imidazol-2-yl)-2H-pyrazolo[4,3-b]pyridin-5(4H)-one] were 18.1 nM, 1080 nM and 0.377 nM.
Taken in the same sequence, the figures for `CC(C)C(Nc1c(-c2nc3cnc(N4CCN(C)CC4)cc3[nH]2)c(=O)[nH]c2cn(C)nc12)c1ncccn1` (single isomer, unassigned) [Compound 23, (S*)-2-methyl-7-((2-methyl-1-(pyrimidin-2-yl)propyl)amino)-6-(6-(4-methylpiperazin-1-yl)-1H-imidazo[4,5-c]pyridin-2-yl)-2H-pyrazolo[4,3-b]pyridin-5(4H)-one] were 34.6 nM, 266 nM and 0.979 nM.
For the molecule `CC(Nc1c(-c2nc3ccc(N4CCN(CC(F)(F)F)CC4)cc3[nH]2)c(=O)[nH]c2cn(C)nc12)c1ncccn1` (single isomer, unassigned) [Compound 26, (S*)-2-methyl-7-((1-(pyrimidin-2-yl)ethyl)amino)-6-(6-(4-(2,2,2-trifluoroethyl)piperazin-1-yl)-1H-benzo[d]imidazol-2-yl)-2H-pyrazolo[4,3-b]pyridin-5(4H)-one], the GI50 in assay [1] was 5.96 nM. Further, the IC50 in assay [2] turned out to be 768 nM; in assay [3], 0.637 nM.
Taken in the same sequence, the figures for `Cc1c(N2CCOCC2)ccc2nc(-c3c(NC(C)c4ncccn4)c4nn(C)cc4[nH]c3=O)[nH]c12` (single isomer, unassigned) [Compound 28, (S*)-2-methyl-6-(7-methyl-6-morpholino-1H-benzo[d]imidazol-2-yl)-7-((1-(pyrimidin-2-yl)ethyl)amino)-2H-pyrazolo[4,3-b]pyridin-5(4H)-one] were 10 nM, 2070 nM and 0.939 nM.
